Values after ≈ are worked out from the molar mass of the structure shown. Active and inactive are the calls of the source. No cut-off for these calls is given here.
Tests used:
[1] = Selectivity index, ratio of CC50 for african green monkey vero cells to MIC for Staphylococcus aureus ATCC 25923; assay type: functional
Pseudomonas aeruginosa [2] = assay: Bactericidal activity against Pseudomonas aeruginosa ATCC 10145 by broth dilution method; assay type: functional
[3] = Selectivity index, ratio of CC50 for african green monkey vero cells to MIC for Pseudomonas aeruginosa ATCC 10145; assay type: functional
Bacillus subtilis [4] = assay: Antibacterial activity against Bacillus subtilis ATCC 11774 assessed as growth inhibition by broth dilution method; assay type: functional
Escherichia coli [5] = assay: Antibacterial activity against Escherichia coli ATCC 10536 assessed as growth inhibition by broth dilution method; assay type: functional
Salmonella typhimurium = assay: Antibacterial activity against Salmonella typhimurium ATCC 51812 assessed as growth inhibition at 1 mg/ml after 24 hrs by agar diffusion method; assay type: functional, organism-based; conditions: Salmonella enterica subsp. enterica serovar Typhimurium
Staphylococcus aureus [6] = assay: Bactericidal activity against Staphylococcus aureus ATCC 25923 by broth dilution method; assay type: functional
Pseudomonas aeruginosa [7] = assay: Antibacterial activity against Pseudomonas aeruginosa ATCC 10145 assessed as growth inhibition by broth dilution method; assay type: functional
Serratia marcescens [8] = assay: Antibacterial activity against Serratia marcescens ATCC 13880 assessed as growth inhibition at 1 mg/ml after 24 hrs by agar diffusion method; assay type: functional; conditions: ATCC 13880, 24 h, read-out: DIZ
[9] = Selectivity index, ratio of CC50 for african green monkey vero cells to MIC for Serratia marcescens ATCC 13880; assay type: functional
Bacillus subtilis [10] = assay: Antibacterial activity against Bacillus subtilis ATCC 11774 assessed as growth inhibition at 1 mg/ml after 24 hrs by agar diffusion method; assay type: functional; conditions: ATCC 11774, 24 h, read-out: DIZ
Escherichia coli [11] = assay: Antibacterial activity against Escherichia coli ATCC 10536 assessed as growth inhibition at 1 mg/ml after 24 hrs by agar diffusion method; assay type: functional; conditions: ATCC 10536, 24 h, read-out: DIZ
[12] = Cytotoxicity against african green monkey vero cells by MTT assay; assay type: cell-based; conditions: chlorocebus sabaeus
Staphylococcus aureus [13] = assay: Antibacterial activity against Staphylococcus aureus ATCC 25923 assessed as growth inhibition by broth dilution method; assay type: functional
Enterococcus faecalis = assay: Antibacterial activity against Enterococcus faecalis ATCC 14506 assessed as growth inhibition at 1 mg/ml after 24 hrs by agar diffusion method; assay type: functional, organism-based
[14] = tested on: Staphylococcus epidermidis; assay: Antibacterial activity against Staphylococcus epidermidis ATCC 12228 assessed as growth inhibition at 1 mg/ml after 24 hrs by agar diffusion method; assay type: functional, organism-based
Staphylococcus aureus [15] = assay: Antibacterial activity against Staphylococcus aureus ATCC 25923 assessed as growth inhibition at 1 mg/ml after 24 hrs by agar diffusion method; assay type: functional; conditions: ATCC 25923, 24 h, read-out: DIZ
Serratia marcescens [16] = assay: Bactericidal activity against Serratia marcescens ATCC 13880 by broth dilution method; assay type: functional
Staphylococcus aureus [17] = assay: Antibacterial activity against methicillin-resistant Staphylococcus aureus ATCC 43300 assessed as growth inhibition at 1 mg/ml after 24 hrs by agar diffusion method; assay type: functional, organism-based
[18] = Selectivity index, ratio of CC50 for african green monkey vero cells to MIC for Escherichia coli ATCC 10536; assay type: functional
Serratia marcescens [19] = assay: Antibacterial activity against Serratia marcescens ATCC 13880 assessed as growth inhibition by broth dilution method; assay type: functional
[20] = Selectivity index, ratio of CC50 for african green monkey vero cells to MIC for Bacillus subtilis ATCC 11774; assay type: functional
Escherichia coli [21] = assay: Bactericidal activity against Escherichia coli ATCC 10536 by broth dilution method; assay type: functional
Pseudomonas aeruginosa [22] = assay: Antibacterial activity against Pseudomonas aeruginosa ATCC 10145 assessed as growth inhibition at 1 mg/ml after 24 hrs by agar diffusion method; assay type: functional; conditions: ATCC 10145, 24 h, read-out: DIZ
Bacillus subtilis [23] = assay: Bactericidal activity against Bacillus subtilis ATCC 11774 by broth dilution method; assay type: functional
Bacillus subtilis [24] = assay: Antibacterial activity against Bacillus subtilis ATCC 11774 assessed as growth inhibition after 24 hrs by agar diffusion method; assay type: functional
Staphylococcus aureus [25] = assay: Antibacterial activity against Staphylococcus aureus ATCC 25923 assessed as growth inhibition after 24 hrs by agar diffusion method; assay type: functional
Serratia marcescens [26] = assay: Antibacterial activity against Serratia marcescens ATCC 13880 assessed as growth inhibition at 10 ug after 24 hrs by agar diffusion method; assay type: functional; conditions: ATCC 13880, 24 h, read-out: DIZ
Pseudomonas aeruginosa [27] = assay: Antibacterial activity against Pseudomonas aeruginosa ATCC 10145 assessed as growth inhibition at 10 ug after 24 hrs by agar diffusion method; assay type: functional; conditions: ATCC 10145, 24 h, read-out: DIZ
Escherichia coli [28] = assay: Antibacterial activity against Escherichia coli ATCC 10536 assessed as growth inhibition at 10 ug after 24 hrs by agar diffusion method; assay type: functional; conditions: ATCC 10536, 24 h, read-out: DIZ

SMILES | Selectivity Index [1] | MBC (Pseudomonas aeruginosa [2]) | MIC (Bacillus subtilis [4]) | MIC (Escherichia coli [5]) | growth inhibition (GI) (Salmonella typhimurium) | MBC (Staphylococcus aureus [6]) | zone of inhibition at 1000 µg/mL (Serratia marcescens [8]) | zone of inhibition at 1000 µg/mL (Bacillus subtilis [10]) | zone of inhibition at 1000 µg/mL (Escherichia coli [11]) | CC50 [12] | MIC (Staphylococcus aureus [13]) | growth inhibition (GI) (Enterococcus faecalis) | growth inhibition (GI) [14] | zone of inhibition at 1000 µg/mL (Staphylococcus aureus [15]) | growth inhibition (GI) (Staphylococcus aureus [17]) | Selectivity Index [18] | Selectivity Index [20] | MBC (Escherichia coli [21]) | zone of inhibition at 1000 µg/mL (Pseudomonas aeruginosa [22]) | MBC (Bacillus subtilis [23]) | also measured
N#Cc1c(N2CCCCC2)n[nH]c1N | 0.14 | 8000 µg/mL (≈ 41.8 mM) | 4000 µg/mL (≈ 20.9 mM) | 4000 µg/mL (≈ 20.9 mM) | inactive | 16000 µg/mL (≈ 83.7 mM) | 6 mm | 9 mm | 15 mm | 550 µg/mL (≈ 2.88 mM) | 16000 µg/mL (≈ 83.7 mM) | inactive | inactive | 15 mm | inactive | 0.14 | 0.14 | 8000 µg/mL (≈ 41.8 mM) | 7 mm | 8000 µg/mL (≈ 41.8 mM) | Selectivity Index [3]: 0.07; MIC (Pseudomonas aeruginosa [7]): 8000 µg/mL (≈ 41.8 mM); Selectivity Index [9]: 0.28; MBC (Serratia marcescens [16]): 4000 µg/mL (≈ 20.9 mM); MIC (Serratia marcescens [19]): 2000 µg/mL (≈ 10.5 mM)
O=C(N[C@H](CO)[C@H](O)c1ccc([N+](=O)[O-])cc1)C(Cl)Cl [CHLORAMPHENICOL] |  |  |  |  |  |  |  |  |  |  |  |  |  |  |  |  |  |  |  |  | diameter of the inhibition zone (DIZ) (Bacillus subtilis [24]): 25 mm; diameter of the inhibition zone (DIZ) (Staphylococcus aureus [25]): 25 mm
CSc1c(C#N)c(N)nc2c(C#N)c(N3CCCCC3)nn12 | 0.11 | 16000 µg/mL (≈ 51.1 mM) | 16000 µg/mL (≈ 51.1 mM) | 16000 µg/mL (≈ 51.1 mM) | inactive | 16000 µg/mL (≈ 51.1 mM) | 7 mm | 10 mm | 10 mm | 1750 µg/mL (≈ 5.58 mM) | 16000 µg/mL (≈ 51.1 mM) | inactive | inactive | 11 mm | inactive | 0.11 | 0.11 | 16000 µg/mL (≈ 51.1 mM) | 7 mm | 16000 µg/mL (≈ 51.1 mM) | Selectivity Index [3]: 0.22; MIC (Pseudomonas aeruginosa [7]): 8000 µg/mL (≈ 25.5 mM); Selectivity Index [9]: 0.11; MBC (Serratia marcescens [16]): 16000 µg/mL (≈ 51.1 mM); MIC (Serratia marcescens [19]): 16000 µg/mL (≈ 51.1 mM)
CN[C@@H]1[C@H](O[C@H]2[C@H](O[C@H]3[C@H](O)[C@@H](O)[C@H](N=C(N)N)[C@@H](O)[C@@H]3N=C(N)N)O[C@@H](C)[C@]2(O)C=O)O[C@@H](CO)[C@H](O)[C@H]1O [STREPTOMYCIN] |  |  |  |  |  |  |  |  |  |  |  |  |  |  |  |  |  |  |  |  | zone of inhibition at 10 µg/disc (Serratia marcescens [26]): 20 mm; zone of inhibition at 10 µg/disc (Pseudomonas aeruginosa [27]): 14 mm; zone of inhibition at 10 µg/disc (Escherichia coli [28]): 13 mm
Cc1cc(C)n2nc(N3CCCCC3)c(C#N)c2n1 | 0.08 |  | 16000 µg/mL (≈ 62.7 mM) | 16000 µg/mL (≈ 62.7 mM) | inactive | 16000 µg/mL (≈ 62.7 mM) | 7 mm | 10 mm | 11 mm | 1250 µg/mL (≈ 4.9 mM) | 16000 µg/mL (≈ 62.7 mM) | inactive | inactive | 12 mm | inactive | 0.08 | 0.08 | 16000 µg/mL (≈ 62.7 mM) | 6 mm | 16000 µg/mL (≈ 62.7 mM) | Selectivity Index [9]: 0.08; MBC (Serratia marcescens [16]): 16000 µg/mL (≈ 62.7 mM); MIC (Serratia marcescens [19]): 16000 µg/mL (≈ 62.7 mM)
N#Cc1c(N2CCCC2)n[nH]c1N | 0.31 | 16000 µg/mL (≈ 90.3 mM) | 8000 µg/mL (≈ 45.1 mM) | 8000 µg/mL (≈ 45.1 mM) | inactive | 16000 µg/mL (≈ 90.3 mM) | 7 mm | 9 mm | 9 mm | 2500 µg/mL (≈ 14.1 mM) | 16000 µg/mL (≈ 90.3 mM) | inactive | inactive | 10 mm | inactive | 0.31 | 0.31 | 16000 µg/mL (≈ 90.3 mM) | 7 mm | 8000 µg/mL (≈ 45.1 mM) | Selectivity Index [3]: 0.31; MIC (Pseudomonas aeruginosa [7]): 8000 µg/mL (≈ 45.1 mM); Selectivity Index [9]: 0.31; MBC (Serratia marcescens [16]): 8000 µg/mL (≈ 45.1 mM); MIC (Serratia marcescens [19]): 8000 µg/mL (≈ 45.1 mM)
N#Cc1c(N2CCOCC2)n[nH]c1N | 0.29 | 16000 µg/mL (≈ 82.8 mM) | 16000 µg/mL (≈ 82.8 mM) | 8000 µg/mL (≈ 41.4 mM) | inactive | > 16000 µg/mL | 6 mm | 6 mm | 11 mm | 2340 µg/mL (≈ 12.1 mM) | 16000 µg/mL (≈ 82.8 mM) | inactive | inactive | 11 mm | inactive | 0.29 | 0.15 | 16000 µg/mL (≈ 82.8 mM) | 7 mm | 16000 µg/mL (≈ 82.8 mM) | Selectivity Index [3]: 0.29; MIC (Pseudomonas aeruginosa [7]): 8000 µg/mL (≈ 41.4 mM); Selectivity Index [9]: 0.29; MBC (Serratia marcescens [16]): 8000 µg/mL (≈ 41.4 mM); MIC (Serratia marcescens [19]): 8000 µg/mL (≈ 41.4 mM)
Cc1ccc(C)n1-c1[nH]nc(N2CCCCC2)c1C#N | 0.18 | 8000 µg/mL (≈ 29.7 mM) | 4000 µg/mL (≈ 14.9 mM) | 8000 µg/mL (≈ 29.7 mM) | inactive | 8000 µg/mL (≈ 29.7 mM) | 6 mm | 16 mm | 7 mm | 1400 µg/mL (≈ 5.2 mM) | 8000 µg/mL (≈ 29.7 mM) | inactive | inactive | 12 mm | inactive | 0.18 | 0.35 | 8000 µg/mL (≈ 29.7 mM) | 7 mm | 8000 µg/mL (≈ 29.7 mM) | Selectivity Index [3]: 0.35; MIC (Pseudomonas aeruginosa [7]): 4000 µg/mL (≈ 14.9 mM)

From ChEMBL document CHEMBL2390874, “Synthesis, antibacterial activity and cytotoxicity of new fused pyrazolo[1,5-a]pyrimidine and pyrazolo[5,1-c][1,2,4]triazine derivatives from new 5-aminopyrazoles” (Eur J Med Chem, 2013)
